The values that follow come from patent US20180312542A1, “ENDOSOMAL ESCAPE PEPTIDES” (priority 2015, published 2018).

The test system of data set [1] is BSR.LNL.tdTomato cells. Description: ATP-dependent cell viability assay (CellTiterGlo) 48 h after treatment. The data set is classed as cell-based, hamster. As for the experimental part:
FIGS. 3A-3B. Efficacy and toxicity of recombinant expression fusions of aurein 1.2 (“E”) and citropin 1.3 (“U”). (FIG. 3A) Cytosolic Cre delivery results in recombination and tdTomato expression. The percentage of tdTomato positive cells was determined by flow cytometry. Protein fusions were delivered at 125 nM, 250 nM, 500 nM, and 1 μM. (FIG. 3B) Toxicity of aurein 1.2 and citropin 1.3 as determined by CellTiterGlo (Promega) assay. Protein fusions were delivered at 125 nM, 250 nM, 500 nM, and 1 μM. […] Cells were treated with 250 nM protein for 4 hours in serum-free media. Cells were washed and supplanted with full DMEM and incubated for 48 hours. Error bars represent the standard deviation of three independent biological replicates.
Next, the toxicity of each fusion protein was evaluated at a range of concentrations (125 nM to 1 μM) using an ATP-dependent cell viability assay at 48 h after treatment. […] Applying 1 μM treatments decreased cell viability to 70% and 66%, respectively (FIG. 3B). In light of its activity and low cytotoxicity at 250 nM, the ability of aurein 1.2 to enhance cytosolic protein delivery was characterized in depth.
Uptake and delivery assays for Cre fusion proteins were performed as previously described. Briefly, proteins were diluted in serum-free DMEM and incubated on the cells in 48-well plates for 4 hours at 37° C. Following incubation, the cells were washed three times with PBS+20 U/mL heparin. The cells were incubated a further 48 hours in serum-containing media prior to trypsinization and analysis by flow cytometry. All flow cytometry were carried out on a BD Fortessa flow cytometer (Becton-Dickinson) using 530/30 nm and 610/20 nm filter sets. Toxicity for aurein 1.2 and citropin 1.3 validation assays was determined using CellTiterGlo assay (Promega) in 96-well plates following manufacturer protocol. Toxicity for alanine scan mutational analysis was determined with LIVE/DEAD fixable far-red dead cell stain (Life Technologies) with 635 nm laser and 670/30 nm filter.
(Cellular ATP, detected with luciferase, serves as a proxy for viable cell number.)

Data set [2] relates to cochlear hair cells and supporting cells of Cre reporter transgenic mice. Description: In vivo protein delivery of Cre recombinase into mouse neonatal cochleas. The conditions noted are these: 0.4 μL of 50 μM, 5 days; for cochlear cells survived as compared to +36 GFP-Cre treatment: scala media. The protocol: FIGS. 6A-6C. In vivo protein delivery of Cre recombinase into mouse neonatal cochleas. 0.4 μL of 50 μM+36 GFP-Cre or aurein 1.2-+36 GFP-Cre were injected into the scala media. (FIG. 6A) Five days after injection, cochlea were harvested. Inner hair cells (IHC), outer hair cells (OHC) and supporting cells in the sensory epithelium (SE) were imaged for the presence of tdTomato, which is only expressed following Cre-mediated recombination. Hair cells were labeled with antibodies against the hair-cell marker Myo7a. (FIG. 6B) To evaluate cytotoxicity, the number of outer hair cells and inner hair cells were measured by counting DAPI-stained cells. (FIG. 6C) The percentage of tdTomato positive cells, reflecting successful delivery of functional Cre recombinase, was determined by fluorescence imaging.
To evaluate the ability of aurein 1.2 to increase the efficacy of cationic protein delivery in vivo, proteins were delivered to the inner ear of Cre reporter transgenic mice that express tdTomato upon Cre-mediated recombination. This animal model was chosen due to its confined injection volume, the presence of well-characterized cell types, and the existence of genetic deafness models that would facilitate future studies of protein delivery to treat hearing loss.
Anesthetized postnatal day 2 (P2) mice were injected with 0.4 μL of 50 μM+36 GFP-Cre or aurein 1.2-+36 GFP-Cre solutions in the scala media to access the cochlear cells. Five days after injection, the cochleas were harvested for immunolabeling of inner ear cell markers and imaging for tdTomato florescence (FIG. 6A). Both the hair cells (Myo7a+) and supporting cells (Myo7a−) were evaluated for td Tomato signal. The total number of hair cells and supporting cells (by DAPI labeling) in the sensory epithelium (SE) was used to determine the relative toxicity of aurein 1.2-+36 GFP-Cre to the baseline treatment of +36 GFP-Cre ([…]).
P1-2 Gt(ROSA)26Sor^tm14(CAG-tdTomato)Hze mice were used for aurein 1.2-+36-GFP-Cre and +36-GFP-Cre injection. The Rosa26-tdTomato mice were from the Jackson Laboratory. Animals were used under protocols approved by the Massachusetts Eye & Ear Infirmary IACUC committee. Mice were anesthetized by hypothermia on ice. Cochleostomies were performed by making an incision behind the ear to expose the cochlea. Glass micropipettes held by a micromanipulator were used to deliver the complex into the scala media, which allows access to inner ear hair cells. The total delivery volume for every injection was 0.4 μL per cochlea and the release was controlled by a micromanipulator at the speed of 69 nL/min.
5 days after injection, the mice were sacrificed and cochlea were harvested by standard protocols. See, e.g., Sage et al. Science 2005, 307, 1114. For immunohistochemistry, antibodies against hair-cell markers (Myo7a) and supporting cells (Sox2) were used following a previously described protocol. To quantify the number of tdTomato positive cells after aurein 1.2-+36-GFP-Cre and +36-GFP-Cre, we counted the total number of inner and outer hair cells in a region spanning 100 μm in the apex, middle, and base turn of the cochlea.

Turning to “aurein 1.2-+36 GFP-Cre: fusion protein of aurein 1.2, +36 GFP and Cre recombinase, SEQ ID NO: 77”, in data set [1] (250 nM recombinant fusion), the viability (usually a read-out of living cells in per cent, often relative to untreated cells) is reported as 87%. In addition, the viable cells in data set [1] (1 μM treatment) was found to be 70%. In addition, in data set [2] (apex), the “Cre-mediated recombination, inner hair cells (IHC)” value (“Cre-mediated recombination … (IHC)” for short) is 100%; the “Cre-mediated recombination, outer hair cells (OHC)” value (shortened to “Cre-mediated recombination … (OHC)”) is given as 96%; the “cochlear cells survived as compared to +36 GFP-Cre treatment” value is given as 96%. Besides, in data set [2] (base), the “Cre-mediated recombination … (IHC)” value is listed as 70%; the “Cre-mediated recombination … (OHC)” value is given as 69%; the “cochlear cells survived as compared to +36 GFP-Cre treatment” value was 66%. In addition, in data set [2] (middle), the “Cre-mediated recombination … (IHC)” value came to 94%; the “Cre-mediated recombination … (OHC)” value came to 91%; the “cochlear cells survived as compared to +36 GFP-Cre treatment” value was 92%.
